# Measured values published in paper PMC2910156 (Journal of neurochemistry, 2010).
# Target: α-synuclein (E46K α-syn) (Homo sapiens, UniProt P37840, E46K)
# Assay: Thioflavin T fibrillization assay with purified E46K α-syn
# Format: biochemical
smiles,measurement,value
O=c1cc(-c2ccccc2)oc2cc(O)c(O)c(O)c12 [Baicalein],IC50,~10 µM
